Patent publication US20240307283A1, “COMPOSITIONS AND METHODS FOR DECREASING PIGMENTATION” (The General Hospital Corporation, priority 2021, published 2024)
Peptide text beside a SMILES is read from it. * marks the point of attachment. Cbz = O=C(OCc1ccccc1)*

Key:
UACC257 cells = assay: siNNT-induced pigmentation with antioxidants, melanin content; assay type: cell-based, human; conditions: NAC 5 mM, MitoTEMPO 20 μM daily for 72 h; NADPH 0.1 M
Method: sIRNA transfection: A single treatment of 10 nmol/L of siRNA was delivered to a 60% confluent culture by transfection with Lipofectamine RNAiMAX (Life Technologies, #13778150) according to the manufacturer's recommendations. After 48-72 h of transfection, total RNA or protein was harvested. Melanin quantification: Equal numbers of cells were plated in 6-well plates. The cells were then harvested 72-96 hours post siRNA or NNT inhibitors compounds, as indicated in the legends, pelleted, washed in PBS and counted. 10^6 cells were used for measurement of protein concentration with the Pierce BCA protein assay (Thermo Fisher Scientific, #23225) and 10^6 cells were resuspended in 60 μl of 1 N NaOH solution and incubated at 60° C. for 2 h or until the melanin was completely dissolved. After cooling down to room temperature, samples were centrifuged at 500×g for 10 min and the supernatants were loaded onto a 96-well plate. The melanin content was determined by measuring the absorbance at 405 nm on an Envision plate reader, compared with a melanin standard (0 to 50 μg/ml; Sigma Aldrich, #M8631). Melanin content was expressed as micrograms per milligram of protein.

tyrosinase = assay: Cycloheximide chase assay of tyrosinase protein stability; assay type: cell-based, human; conditions: then CHX
Method: Cycloheximide chase assay: 72 h after siRNA transfection (sicontrol or siNNT), UACC257 melanoma cells were treated with a protein synthesis inhibitor, cyclohexamide (CHX, Sigma Aldrich #C7698, 50 μg/ml), for the indicated times and then immediately subjected to immunoblotting for tyrosinase protein expression. The expression of tyrosinase was quantified using ImageJ software based on band intensities and normalized to the intensities of the corresponding β-actin bands. The normalized tyrosinase expression was then defined as relative tyrosinase expression by setting the mean values at t=0 in each experimental group to 1.0. […] The siRNA-transfected cells were cultured for an additional 48 h in the presence of these agents and then examined by the CHX chase assay as described above. pLJM-1-EGFP or pLJM1-NNT/FLAG was introduced into UACC257 cells using Lipofectamine 3000, 48 after transfection, the transfection medium was replaced with fresh medium containing DMSO or 10 μM MG132 (Sigma Aldrich #M8699) and pre-incubated for 6 h. Then. CHX was added to assess tyrosinase protein stability as described above.

human skin explants = assay: Depigmentation of human skin explants by NNT activators; assay type: cell-based; conditions: for ability to depigment skin: after 36 hours, FIGS. 13A-B; for ability to depigment skin / Dose needed to depigment within 36 h (skin type 2): DMSO-based carrier; for Dose needed to depigment within 36 h (skin type 2): single dose or lower end of the dose range
Method: (§1) Skin samples considered surgical waste were obtained de-identified from healthy donors (IRB #2013P000093) undergoing reconstructive surgery, according to institutional regulations. Full thickness human abdominal skin explants were cultured in petri dishes with a solid phase and liquid phase phenol red free DMEM medium containing 20% penicillin/streptomycin/glutamine, 5% fungizone (Gibco), and 10% fetal bovine serum. Compounds were applied strictly on top of the explants, making sure no drip occurred into the underlying media. For UV irradiation experiments, a UV lamp (UV Products) was used at 1000 mJ/cm^2 UVB.
The ability of ASS, Usnic acid, 4-hexylresorcinol, candesartan, Nigericin, elaidylphosphocholine, hexitidine, naproxol, and Ginkgolic acid to depigment skin was tested in human skin explants. A DMSO-based carrier solution was used. DMSO was used as a negative control. […]

NNT = assay: Immunoblot of NNT after redox modulators; assay type: cell-based, human; conditions: UACC257, NAC 5 mM, MitoTEMPO 20 μM, H2O2 100 μM, daily for 72 hours
Method: Immunoblotting: Whole-cell protein lysates were prepared using RIPA lysis buffer (Sigma-Aldrich, #R0278) supplemented with Protease and Phosphatase Inhibitor (ThermoFisher Scientific, #P178445). Protein concentrations were quantified using the Pierce BCA protein assay (ThermoFisher Scientific, #23225). Immunoblotting was performed by standard techniques using 4-15% Criterion TGX Precast Midi Protein gels (Bio-Rad Laboratories, #5671084) and transferring to 0.2 μm nitrocellulose membranes (Bio-Rad Laboratories, #1620112). Membranes were blocked with 5% non-fat milk (Boston BioProducts, #P-1400) in PBS containing 0.1% […] and incubated with one of the following primary antibodies at the indicated dilution (antibody sources are in the Key Resources Table): 1:20 dilution of anti-MITF monoclonal antibody CS, 1:1,000 dilution of anti-Tyrosinase clone T311, 1:1,000 dilution of anti-Mitofusin-2 antibody [6A8], 1:500 dilution of TRP2/DCT antibody, 1:1,000 dilution of anti-NNT antibody [8B4BB10], 1:1,000 dilution of anti-IDH1 ([…]) antibody, 1:1,000 dilution of p53 antibody [PAb 240], 1:1,000 dilution of TYRP1 antibody [EPR21960], 1:1,000 dilution of mouse monoclonal antibody Pmel17 (E-7), or 1:1,000 dilution of LC3B (D11) rabbit monoclonal antibody. Incubation with the appropriate secondary antibody followed, either a 1:5,000 dilution of donkey anti-Rabbit IgG-HRP or a 1:3,000 dilution of Amersham ECL mouse IgG, HRP. To verify equal loading of samples, membranes were re-probed with a 1:20,000 dilution of monoclonal anti-β-actin-peroxidase (Sigma Aldrich, #A3854). Protein bands were visualized using Western Lightning Plus ECL (PerkinElmer, #NEL105001EA) and quantified using ImageJ software (NIH).

[1] = system: mouse melan-A melanocytes; assay: In vitro depigmentation of melan-A melanocytes; assay type: cell-based; conditions: 2 uM or 10 uM, DMSO-based carrier, 1-5 days (average 1.5 days), FIG. 12B
Method: Murine Melan-A (Bennett et al., 1987) cells were obtained from the Wellcome Trust Functional Genomics Cell Bank. Melan-A cells were grown in RPMI 1640 supplemented with 10% FBS or FetalPlex (Gemini Bio-Products, #100-602), 100,000 U/L penicillin, 100 mg/L streptomycin sulphate, 100× Glutamax, and 200 nM TPA.
(§2) The ability of 2 uM or 10 uM ASS, Usnic acid, 4-hexylresorcinol, candesartan, Nigericin, and Ginkgolic acid to depigment was evaluated in mouse B16 melanoma cells and melan-A melanocytes. A DMSO-based carrier solution was used, and the experiments carried out for 1-5 days, with an average of 1.5 days. 4-n-Butylresorcinol, N-Acetylcystein (NAC), and Phenylthiourea (PTU), were used as a positive control, and DMSO as a negative control.

[2] = system: human skin explants (Fitzpatrick skin type 2); assay: Prevention of UVB-driven pigmentation in human skin explants; assay type: cell-based; conditions: UVB 150 mJ/cm^2
Method: as §1
The ability of a number of NNT activators to prevent UVB-driven pigmentation of skin was evaluated in human skin explants (Fitzpatrick skin type 2) with application of UVB 150 mJ/cm^2. […]

mouse B16 melanoma cells = assay: In vitro depigmentation of B16 melanoma cells; assay type: cell-based; conditions: 2 uM or 10 uM, DMSO-based carrier, 1-5 days (average 1.5 days), FIG. 12A
Method: as §2

| Compound | ability to depigment skin (human skin explants) | ability to depigment [1] | Dose needed to inhibit UVB-induced tanning (skin type 2) [2] | Dose needed to depigment within 36 h (skin type 2) (human skin explants; human skin explants) | ability to depigment (mouse B16 melanoma cells) | also measured |
| --- | --- | --- | --- | --- | --- | --- |
| NC(=O)C1=CN([C@@H]2O[C@H](COP(=O)(O)OP(=O)(O)OC[C@H]3O[C@@H](n4cnc5c(N)ncnc54)[C@H](OP(=O)(O)O)[C@@H]3O)[C@@H](O)[C@H]2O)C=CC1 [NADPH, β-nicontinamide adenine dinucleotide 2′-phosphate] |  |  |  |  |  | siNNT-mediated increase in pigmentation (UACC257 cells): inhibited the siNNT-mediated increase in pigmentation; siNNT-increased tyrosinase protein stability (tyrosinase; UACC257, 5 mM NAC, 0.1 mM NADPH, 20 μM MitoTEMPO for 48 h): prevented |
| CCCCCCCC/C=C/CCCCCCCCOP(=O)([O-])OCC[N+](C)(C)C [elaidylphosphocholine, [(E)-octadec-9-eny] 2-(trimethylazaniumyl)ethyl phosphate] | depigmenting effects |  |  |  |  |  |
| CC(C)C[C@@H](C=O)NC(=O)[C@H](CC(C)C)NC(=O)[C@H](CC(C)C)NC(=O)OCc1ccccc1 [MG132, carbobenzoxy-L-leucyl-L-leucyl-L-leucinal] (Cbz-Leu-Leu-Leu-aldehyde) |  |  |  |  |  | tyrosinase protein stability in NNT-overexpressing cells (tyrosinase; UACC257, 10 μM for 6 h): prevented an NNT overexpression-induced decrease in Tyrosinase protein stability |
| OO [H2O2, Hydrogen peroxide] |  |  |  |  |  | NNT protein levels (NNT): did not impact NNT protein levels |
| CC(=O)Oc1ccccc1C(=O)O [ASS, Acetylsalicylic Acid] | depigmenting effects | depigmenting effects | 10 µM | ≥ 5 µM | depigmenting effects |  |
| CCCCCCc1ccc(O)cc1O [4-hexylresorcinol] | depigmenting effects | depigmenting effects | 1000 µM | 5 µM | depigmenting effects |  |
| CC(=O)c1c(O)c(C)c(O)c2c1OC1=CC(=O)C(C(C)=O)C(=O)C12C (centres unmarked) [Usnic acid, usnic acid] |  |  | 100 µM | ≥ 5 µM |  |  |
| CO[C@@H]1C[C@@H](C[C@H]2CC[C@H](C)[C@H]([C@@H](C)C(=O)O)O2)O[C@]2(O[C@](C)([C@H]3CC[C@@](C)([C@@H]4O[C@@H]([C@H]5O[C@@](O)(CO)[C@H](C)C[C@@H]5C)C[C@@H]4C)O3)C[C@H]2C)[C@@H]1C [Nigericin] | depigmenting effects | depigmenting effects | 10 to 100 µM | 5 µM | depigmenting effects |  |
| CCCCCC/C=C\CCCCCCCc1cccc(O)c1C(=O)O [Ginkgolic acid] | depigmenting effects | depigmenting effects | 100 µM | ~50 µM | depigmenting effects | lightening by Fontana Masson and H&E staining (human skin explants; FIG. 13C): displayed lightening effects; nuclear capping (human skin explants; FIG. 13C): Nuclear capping was present; Dose needed to depigment within 36 h (skin type 2), result in words (human skin explants; human skin explants): n.s. |
| CCOc1nc2cccc(C(=O)O)c2n1Cc1ccc(-c2ccccc2-c2nnn[nH]2)cc1 [candesartan, 1-((2′-(1H-Tetrazol-5-yl)-[1,1′-biphenyl]-4-yl)methyl)-2-ethoxy-1H-benzo[d]imidazole-7-carboxylic acid] | depigmenting effects | depigmenting effects | 1000 to 10000 µM | ≥ 50 µM | depigmenting effects |  |
